The source of these data is ChEMBL document CHEMBL2203016, “Purpuroines A-J, halogenated alkaloids from the sponge Iotrochota purpurea with antibiotic activity and regulation of tyrosine kinases” (Bioorg Med Chem, 2012).

Each structure is given as a SMILES string. Values after ≈ are worked out from the molar mass of the structure shown. Active and inactive are the calls of the source. The calls are words filed in the database; no cut-off is given here. Some results are limits rather than exact numbers.

Experiment [1] deals with Candida albicans. The experiment is described as follows: Antimicrobial activity against Candida albicans by microplate reader analysis. The format is functional, organism-based.
Experiment [2] concerns the target Cyclin-dependent kinase 2 (Homo sapiens, UniProt P24941). The experiment can be described thus: Inhibition of CDK2.
Experiment [3] addresses Serine/threonine-protein kinase PLK1 (Homo sapiens, UniProt P53350). The experiment can be described thus: Inhibition of PLK1.
For experiment [4], the target named is Tyrosine-protein kinase Lck (Homo sapiens, UniProt P06239). The experiment can be described thus: Inhibition of LCK.
Chain of Tyrosine-protein kinase Lck (P06239 whole entry): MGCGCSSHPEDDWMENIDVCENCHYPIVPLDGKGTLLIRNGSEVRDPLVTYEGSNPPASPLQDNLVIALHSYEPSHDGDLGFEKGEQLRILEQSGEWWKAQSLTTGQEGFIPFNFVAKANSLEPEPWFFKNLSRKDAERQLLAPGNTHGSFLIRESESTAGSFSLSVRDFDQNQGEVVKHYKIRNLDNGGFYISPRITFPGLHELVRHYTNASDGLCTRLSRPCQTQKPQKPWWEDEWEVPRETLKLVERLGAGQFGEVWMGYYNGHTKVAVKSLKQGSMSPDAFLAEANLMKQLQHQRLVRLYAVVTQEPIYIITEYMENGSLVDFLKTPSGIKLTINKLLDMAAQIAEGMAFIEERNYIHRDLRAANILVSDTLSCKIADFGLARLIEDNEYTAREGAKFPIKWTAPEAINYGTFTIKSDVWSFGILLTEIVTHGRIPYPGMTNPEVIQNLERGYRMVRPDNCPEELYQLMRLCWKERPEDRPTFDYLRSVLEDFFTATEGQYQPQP
Experiment [5] deals with Streptococcus pneumoniae. The experiment can be described thus: Antimicrobial activity against Streptococcus pneumoniae by microplate reader analysis. The class given is functional, organism-based.
For experiment [6], the system named is Aspergillus fumigatus. The experiment is described as follows: Antimicrobial activity against Aspergillus fumigatus by microplate reader analysis. The class given is functional, organism-based.
In another experiment the test system is Escherichia coli. The experiment is described as follows: Antimicrobial activity against Escherichia coli by microplate reader analysis. The format is functional, organism-based.
Experiment [7] has as its system Streptococcus pneumoniae. The experiment can be described thus: Antimicrobial activity against Streptococcus pneumoniae at 20 ug/ml by microplate reader analysis. The class given is functional, organism-based.
The next experiment deals with Saccharomyces cerevisiae. The experiment is described as follows: Antimicrobial activity against Saccharomyces cerevisiae by microplate reader analysis. The format is functional, organism-based.
Another experiment has as its system Staphylococcus aureus. The experiment can be described thus: Antimicrobial activity against Staphylococcus aureus by microplate reader analysis. The format is functional, organism-based.
The test system of another experiment is Pseudomonas aeruginosa. The experiment is described as follows: Antimicrobial activity against Pseudomonas aeruginosa by microplate reader analysis. The class given is functional, organism-based.
In experiment [8] the test system is Candida albicans. The experiment can be described thus: Antimicrobial activity against Candida albicans at 20 ug/ml by microplate reader analysis. The class given is functional, organism-based.
For another experiment, the system named is Aspergillus flavus. The experiment can be described thus: Antimicrobial activity against Aspergillus flavus by microplate reader analysis. The format is functional, organism-based.
For experiment [9], the system named is Aspergillus fumigatus. The experiment can be described thus: Antimicrobial activity against Aspergillus fumigatus at 20 ug/ml by microplate reader analysis. The class given is functional, organism-based.
Another experiment relates to Fusarium oxysporum. The experiment is described as follows: Antimicrobial activity against Fusarium oxysporum by microplate reader analysis. The class given is functional, organism-based.
[10] abbreviates: Candida albicans, read-out: IC50.
Where [11] appears, read: Aspergillus fumigatus, read-out: IC50.
The mark [12] stands for this setting: Streptococcus pneumoniae, read-out: IC50.

The term IC50 denotes the concentration needed to halve the response being measured.

Chain of Serine/threonine-protein kinase PLK1 (P53350 whole entry): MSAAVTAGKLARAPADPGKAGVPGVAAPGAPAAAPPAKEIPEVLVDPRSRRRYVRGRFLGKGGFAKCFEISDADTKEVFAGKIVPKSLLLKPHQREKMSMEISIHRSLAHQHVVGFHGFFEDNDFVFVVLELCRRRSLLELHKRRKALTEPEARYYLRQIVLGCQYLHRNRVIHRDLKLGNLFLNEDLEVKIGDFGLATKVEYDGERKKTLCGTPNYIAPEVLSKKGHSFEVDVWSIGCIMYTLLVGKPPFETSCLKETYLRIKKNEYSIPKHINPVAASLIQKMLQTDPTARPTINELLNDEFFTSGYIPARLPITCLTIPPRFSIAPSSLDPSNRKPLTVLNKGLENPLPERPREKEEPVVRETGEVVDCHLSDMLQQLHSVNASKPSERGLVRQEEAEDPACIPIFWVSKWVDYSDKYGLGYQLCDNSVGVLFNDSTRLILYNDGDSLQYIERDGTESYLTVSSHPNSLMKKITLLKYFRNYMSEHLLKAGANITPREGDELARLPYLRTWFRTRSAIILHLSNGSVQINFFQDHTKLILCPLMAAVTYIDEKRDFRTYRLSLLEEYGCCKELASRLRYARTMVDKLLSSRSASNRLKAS

For the compound `C[N+](C)(C)[C@H](CCOc1c(Br)cc(Br)cc1I)C(=O)[O-]` [PURPUROINE D], the IC50 was 19 µg/mL (≈ 36.5 µM) in the experiment on Candida albicans [1] (setting [10]); more than 96 µM in [2]; 2.78 µM in experiment [3]; 1.8 µM in experiment [4]; “Not Active” in the experiment on Streptococcus pneumoniae [5]; 25.6 µg/mL (≈ 49.1 µM) in the experiment on Aspergillus fumigatus [6] (setting [11]).

On to `C[N+](C)(C)[C@H](CCOc1c(Br)cc(Br)cc1Br)C(=O)[O-]` [PURPUROINE A], for which the IC50 result with Candida albicans [1] is “Not Active”; in experiment [2] it was more than 105 µM; in experiment [3], more than 105 µM; in experiment [4] it was 4.96 µM; in the experiment with Streptococcus pneumoniae [5], “Not Active”; with Aspergillus fumigatus [6] (setting [11]) it was 28.6 µg/mL (≈ 60.3 µM).

With `C[N+](C)(C)[C@H](CCOc1c(Cl)cc(Br)cc1Br)C(=O)[O-]`, the result with Escherichia coli, in the experiment with Saccharomyces cerevisiae, in the experiment on Staphylococcus aureus, in the experiment on Pseudomonas aeruginosa, in the experiment with Aspergillus flavus and in the experiment on Fusarium oxysporum was Active. Moreover, the result in the experiment on Streptococcus pneumoniae [7], in the experiment with Candida albicans [8] and with Aspergillus fumigatus [9] was inactive.

On to `CC1(C)S[C@@H]2[C@H](NC(=O)[C@H](N)c3ccccc3)C(=O)N2[C@H]1C(=O)O` [AMPICILLIN], for which the half-inhibitory concentration (IC50) in the experiment with Streptococcus pneumoniae [5] (setting [12]) stood at 0.38 µg/mL (≈ 1.09 µM).

As to `C[N+](C)(C)[C@H](Cc1cc(I)c(O)c(I)c1)C(=O)[O-]` [PURPUROINE G], the result with Escherichia coli, with Saccharomyces cerevisiae, in the experiment on Staphylococcus aureus, in the experiment on Pseudomonas aeruginosa, in the experiment on Aspergillus flavus and in the experiment with Fusarium oxysporum was Active. For the same compound, the result with Streptococcus pneumoniae [7], in the experiment with Candida albicans [8] and in the experiment on Aspergillus fumigatus [9] was inactive. Moreover, the figures for the IC50 in experiment [2], in experiment [3] and in experiment [4] were more than 105 µM, 21.2 µM and 25 µM, respectively.

With `C[N+](C)(C)[C@H](CCOc1ccc(Br)cc1Br)C(=O)[O-]` [PURPUROINE B], the result in the experiment with Escherichia coli, in the experiment with Saccharomyces cerevisiae, in the experiment on Staphylococcus aureus, with Pseudomonas aeruginosa, with Aspergillus flavus and in the experiment with Fusarium oxysporum was Active. Besides, the outcome with Streptococcus pneumoniae [7], with Candida albicans [8] and in the experiment on Aspergillus fumigatus [9] was inactive. Besides, the 50% inhibitory concentration (IC50) is more than 127 µM in [2], more than 127 µM in experiment [3] and 32.3 µM in experiment [4].

`C[C@@H]1[C@H](O)[C@@H](C)/C=C/C=C/C=C/C=C/C=C/C=C/C=C/[C@H](O[C@@H]2O[C@H](C)[C@@H](O)[C@H](N)[C@@H]2O)C[C@@H]2O[C@](O)(C[C@@H](O)C[C@@H](O)[C@H](O)CC[C@@H](O)C[C@@H](O)CC(=O)O[C@H]1C)C[C@H](O)[C@H]2C(=O)O` [AMPHOTERICIN B]: the figures for the 50% inhibitory concentration (IC50) with Candida albicans [1] (setting [10]) and with Aspergillus fumigatus [6] (setting [11]) were 4.26 µg/mL (≈ 4.61 µM) and 3.27 µg/mL (≈ 3.54 µM), respectively.

On to `COc1c(I)cc(C[C@H](C(=O)[O-])[N+](C)(C)C)cc1I` [PURPUROINE F], for which the outcome in the experiment with Escherichia coli, with Saccharomyces cerevisiae, in the experiment with Staphylococcus aureus, with Pseudomonas aeruginosa, in the experiment with Aspergillus flavus and in the experiment with Fusarium oxysporum was Active. The result in the experiment with Streptococcus pneumoniae [7], in the experiment with Candida albicans [8] and in the experiment on Aspergillus fumigatus [9] was inactive. Moreover, the concentration for half-maximal inhibition (IC50) in experiment [2] is more than 102 µM; in [3] it was 9.24 µM; in experiment [4] it was 14.7 µM.

For the compound `C[N+](C)(C)[C@H](Cc1cc(Br)c(O)c(I)c1)C(=O)[O-]` [PURPUROINE I], the result in the experiment with Streptococcus pneumoniae [7], in the experiment with Candida albicans [8] and in the experiment on Aspergillus fumigatus [9] was inactive. The IC50 entry with Candida albicans [1] was “Not Active”; in [2], more than 117 µM; in [3], more than 117 µM; in experiment [4], more than 117 µM; with Streptococcus pneumoniae [5] (setting [12]) it was 18.1 µg/mL (≈ 42.2 µM); in the experiment on Aspergillus fumigatus [6] it was “Not Active”.

Consider `C[N+](C)(C)[C@H](CCOc1c(Cl)cc(Br)cc1Cl)C(=O)[O-]` [PURPUROINE C], for which the half-inhibitory concentration (IC50) entry with Candida albicans [1] was “Not Active”; in experiment [2], more than 130 µM; in experiment [3] it was 17.8 µM; in experiment [4], 11.7 µM; in the experiment with Streptococcus pneumoniae [5] it was “Not Active”; with Aspergillus fumigatus [6] (setting [11]), 26.1 µg/mL (≈ 67.7 µM).

Regarding `COC(=O)[C@@H](Cc1c[nH]c2cc(Br)ccc12)[N+](C)(C)C` (racemic), the outcome with Escherichia coli, in the experiment with Saccharomyces cerevisiae, in the experiment with Staphylococcus aureus, with Pseudomonas aeruginosa, in the experiment with Aspergillus flavus and with Fusarium oxysporum was Active. Moreover, the outcome in the experiment on Streptococcus pneumoniae [7], in the experiment with Candida albicans [8] and in the experiment with Aspergillus fumigatus [9] was inactive.

Turning to `COc1c(Br)cc(C[C@H](C(=O)[O-])[N+](C)(C)C)cc1I` [PURPUROINE H], the IC50 in [2] was more than 113 µM; in experiment [3], 17.1 µM; in experiment [4] it was 17.9 µM.
